Source: patent publication EP4691468A1, “PHARMACEUTICAL COMPOSITION FOR TREATING INFLAMMATORY BOWEL DISEASE” (EA Pharma Co., Ltd., priority 2023, dated 2024)
≈ marks a conversion by molar mass, not a printed value. Where “and” joins values, the source holds several entries; their conditions need not be identical. Equal values may be shown once. Read-outs that look alike come from different tables or passages of the source.

Key:
[1] = test system: MAdCAM-1; assay: Ex vivo MAdCAM-1 binding inhibition rate (PD) of lymphocytes in collected blood, flow cytometry; assay type: cell-based, human
Method: The MAdCAM-1 binding rate of lymphocytes in plasma was measured using a validated measurement method using the obtained blood samples, and the MAdCAM-1 binding inhibition rate of lymphocytes in plasma was calculated using Excel. Specifically, 5 µL of an 80 mM MnCl2 solution was added to 90 µL of heparinized blood and incubated at room temperature for 10 minutes. A volume of 5 µL of 200 µg/mL recombinant human MAdCAM-1/Fc (R&D Systems) was added to make a total volume of 100 µL, and the mixture was incubated at room temperature for 30 minutes. Subsequently, 1900 µL of BD Phosflow Lyse/Fix Buffer 5X (BD Biosciences) was added, and hemolysis and fixation were performed at 37°C for 10 minutes. After centrifugation for 5 minutes, the supernatant was removed, and 2000 µL of RPMI-1640 medium supplemented with 10% inactivated fetal bovine serum (hereinafter referred to as medium) was added. After centrifugation for 5 minutes, the supernatant was removed and washed. After washing again with the medium, 50 µL of Brilliant Stain Buffer (BD Biosciences), 1.25 µL of MAdCAM-1 FITC (Hycult Biotech), 5 µL of CD4 PE (BD Biosciences), 2.5 µL of CD45RO APC (UCHL1) (BioLegend), 5 µL of CD3 BV421 (SK7) (BioLegend), and 2.5 µL of CD45 BV510 (HI30) (BioLegend) were added, and the mixture was incubated for 30 minutes. After washing with Stain Buffer (BSA) (BD Biosciences), the percentage of MAdCAM-1-positive cells among CD3-positive CD4-positive cells was measured using flow cytometry.
The percentage of MAdCAM-1-positive cells among CD3-positive CD4-positive cells was calculated by subtracting each measured value from the measured value when MAdCAM-1/Fc was not added as a control. […]
The MAdCAM-1 binding inhibition rate (PD) of lymphocytes in plasma was evaluated using collected blood, and the correlation with the plasma concentration (PK) of Compound (2) was plotted (Fig. 5).

[2] = for 24-Hour Post-Dose Trough Values of Compound (2) after Repeated Administration / Average Plasma Concentrations of Compound (2) on Day 10 of Repeated Administration: Compound (1) 400 mg once daily L-SEDDS
[3] = for 12-Hour Post-Dose Trough Values of Compound (2) after Repeated Administration / Average Plasma Concentrations of Compound (2) on Day 10 of Repeated Administration: Compound (1) 200 mg twice daily C-SEDDS
[4] = plasma concentration, MAdCAM-1-positive cells among CD3-positive CD4-positive cells, ex vivo blood of healthy adult males
[5] = Measured Value, Repeated, Once daily, 400/L-SEDDS, day 10
[6] = Measured Value, Repeated, Twice daily, 400(200×2)/C-SEDDS, day 10

correlation of MAdCAM-1 binding inhibition rate (PD) with plasma concentration (PK) ([1]; collected blood, Fig. 5): correlated
24-Hour Post-Dose Trough Values of Compound (2) after Repeated Administration ([2]; Day 1): 5.092 ng/mL
24-Hour Post-Dose Trough Values of Compound (2) after Repeated Administration ([2]; Day 2): 10.90 ng/mL
24-Hour Post-Dose Trough Values of Compound (2) after Repeated Administration ([2]; Day 3): 10.60 ng/mL
24-Hour Post-Dose Trough Values of Compound (2) after Repeated Administration ([2]; Day 4): 14.21 ng/mL
24-Hour Post-Dose Trough Values of Compound (2) after Repeated Administration ([2]; Day 5): 19.56 ng/mL
24-Hour Post-Dose Trough Values of Compound (2) after Repeated Administration ([2]; Day 6): 17.27 ng/mL
24-Hour Post-Dose Trough Values of Compound (2) after Repeated Administration ([2]; Day 7): 19.85 ng/mL
24-Hour Post-Dose Trough Values of Compound (2) after Repeated Administration ([2]; Day 8): 22.03 ng/mL
24-Hour Post-Dose Trough Values of Compound (2) after Repeated Administration ([2]; Day 9): 22.80 ng/mL
24-Hour Post-Dose Trough Values of Compound (2) after Repeated Administration ([2]; Day 10): 13.04 ng/mL
Average Plasma Concentrations of Compound (2) on Day 10 of Repeated Administration ([2]; Day 10, Time 0.5 h): 23.82 ng/mL
Average Plasma Concentrations of Compound (2) on Day 10 of Repeated Administration ([2]; Day 10, Time 1 h): 43.52 ng/mL
Average Plasma Concentrations of Compound (2) on Day 10 of Repeated Administration ([2]; Day 10, Time 1.5 h): 44.71 ng/mL
Average Plasma Concentrations of Compound (2) on Day 10 of Repeated Administration ([2]; Day 10, Time 2 h): 40.35 ng/mL
Average Plasma Concentrations of Compound (2) on Day 10 of Repeated Administration ([2]; Day 10, Time 2.5 h): 34.19 ng/mL
Average Plasma Concentrations of Compound (2) on Day 10 of Repeated Administration ([2]; Day 10, Time 3 h): 32.09 ng/mL
Average Plasma Concentrations of Compound (2) on Day 10 of Repeated Administration ([2]; Day 10, Time 4 h): 28.31 ng/mL
Average Plasma Concentrations of Compound (2) on Day 10 of Repeated Administration ([2]; Day 10, Time 5 h): 25.14 ng/mL
Average Plasma Concentrations of Compound (2) on Day 10 of Repeated Administration ([2]; Day 10, Time 6 h): 17.77 ng/mL
Average Plasma Concentrations of Compound (2) on Day 10 of Repeated Administration ([2]; Day 10, Time 7 h): 14.77 ng/mL
Average Plasma Concentrations of Compound (2) on Day 10 of Repeated Administration ([2]; Day 10, Time 8 h): 13.57 ng/mL
Average Plasma Concentrations of Compound (2) on Day 10 of Repeated Administration ([2]; Day 10, Time 12 h): 16.86 ng/mL
Average Plasma Concentrations of Compound (2) on Day 10 of Repeated Administration ([2]; Day 10, Time 15 h): 11.33 ng/mL
Average Plasma Concentrations of Compound (2) on Day 10 of Repeated Administration ([2]; Day 10, Time 21 h): 15.69 ng/mL
Average Plasma Concentrations of Compound (2) on Day 10 of Repeated Administration ([2]; Day 10, Time 24 h): 13.04 ng/mL
24-Hour Post-Dose Trough Values of Compound (2) after Repeated Administration ([2]; Initial Value): 0.000 ng/mL
increase of plasma concentration (trough value) after 24 hours on the 10th day of repeated administration ([2]; L-SEDDS 400 mg once daily, versus single-dose administration): more than threefold
Judgment Trough Value [2, 5]: A (IC90 (6.9 ng/mL) or higher)
Plasma Concentration Trough Value [2, 5]: 13.04 ng/mL and 13.0 ng/mL
increase of plasma concentration (trough value) 12 hours after the second dose on the 10th day of repeated administration ([3]; C-SEDDS 200 mg twice daily, versus single-dose administration): about eightfold
12-Hour Post-Dose Trough Values of Compound (2) after Repeated Administration ([3]; Day 0.5): 2.025 ng/mL
12-Hour Post-Dose Trough Values of Compound (2) after Repeated Administration ([3]; Day 1): 3.653 ng/mL
12-Hour Post-Dose Trough Values of Compound (2) after Repeated Administration ([3]; Day 1.5): 4.250 ng/mL
12-Hour Post-Dose Trough Values of Compound (2) after Repeated Administration ([3]; Day 2): 6.021 ng/mL
12-Hour Post-Dose Trough Values of Compound (2) after Repeated Administration ([3]; Day 2.5): 7.700 ng/mL
12-Hour Post-Dose Trough Values of Compound (2) after Repeated Administration ([3]; Day 3): 7.026 ng/mL
12-Hour Post-Dose Trough Values of Compound (2) after Repeated Administration ([3]; Day 3.5): 7.381 ng/mL
12-Hour Post-Dose Trough Values of Compound (2) after Repeated Administration ([3]; Day 4): 9.303 ng/mL
12-Hour Post-Dose Trough Values of Compound (2) after Repeated Administration ([3]; Day 4.5): 9.167 ng/mL
12-Hour Post-Dose Trough Values of Compound (2) after Repeated Administration ([3]; Day 5): 9.985 ng/mL
12-Hour Post-Dose Trough Values of Compound (2) after Repeated Administration ([3]; Day 5.5): 12.59 ng/mL
12-Hour Post-Dose Trough Values of Compound (2) after Repeated Administration ([3]; Day 6): 11.20 ng/mL
12-Hour Post-Dose Trough Values of Compound (2) after Repeated Administration ([3]; Day 6.5): 10.81 ng/mL
12-Hour Post-Dose Trough Values of Compound (2) after Repeated Administration ([3]; Day 7): 11.82 ng/mL
12-Hour Post-Dose Trough Values of Compound (2) after Repeated Administration ([3]; Day 7.5): 10.83 ng/mL
12-Hour Post-Dose Trough Values of Compound (2) after Repeated Administration ([3]; Day 8): 14.16 ng/mL
12-Hour Post-Dose Trough Values of Compound (2) after Repeated Administration ([3]; Day 8.5): 12.12 ng/mL
12-Hour Post-Dose Trough Values of Compound (2) after Repeated Administration ([3]; Day 9): 15.06 ng/mL
12-Hour Post-Dose Trough Values of Compound (2) after Repeated Administration ([3]; Day 9.5): 12.20 ng/mL
12-Hour Post-Dose Trough Values of Compound (2) after Repeated Administration ([3]; Day 10): 13.69 ng/mL
Average Plasma Concentrations of Compound (2) on Day 10 of Repeated Administration ([3]; Day 10, Time 0.5 h): 11.82 ng/mL
Average Plasma Concentrations of Compound (2) on Day 10 of Repeated Administration ([3]; Day 10, Time 1 h): 10.63 ng/mL
Average Plasma Concentrations of Compound (2) on Day 10 of Repeated Administration ([3]; Day 10, Time 1.5 h): 10.52 ng/mL
Average Plasma Concentrations of Compound (2) on Day 10 of Repeated Administration ([3]; Day 10, Time 2 h): 14.42 ng/mL
Average Plasma Concentrations of Compound (2) on Day 10 of Repeated Administration ([3]; Day 10, Time 2.5 h): 17.31 ng/mL
Average Plasma Concentrations of Compound (2) on Day 10 of Repeated Administration ([3]; Day 10, Time 3 h): 18.02 ng/mL
Average Plasma Concentrations of Compound (2) on Day 10 of Repeated Administration ([3]; Day 10, Time 4 h): 20.07 ng/mL
Average Plasma Concentrations of Compound (2) on Day 10 of Repeated Administration ([3]; Day 10, Time 5 h): 20.59 ng/mL
Average Plasma Concentrations of Compound (2) on Day 10 of Repeated Administration ([3]; Day 10, Time 6 h): 14.19 ng/mL
Average Plasma Concentrations of Compound (2) on Day 10 of Repeated Administration ([3]; Day 10, Time 7 h): 12.13 ng/mL
Average Plasma Concentrations of Compound (2) on Day 10 of Repeated Administration ([3]; Day 10, Time 8 h): 10.93 ng/mL
Average Plasma Concentrations of Compound (2) on Day 10 of Repeated Administration ([3]; Day 10, Time 12 h): 12.20 ng/mL
Average Plasma Concentrations of Compound (2) on Day 10 of Repeated Administration ([3]; Day 10, Time 13 h): 15.64 ng/mL
Average Plasma Concentrations of Compound (2) on Day 10 of Repeated Administration ([3]; Day 10, Time 14 h): 25.37 ng/mL
Average Plasma Concentrations of Compound (2) on Day 10 of Repeated Administration ([3]; Day 10, Time 14.5 h): 25.16 ng/mL
Average Plasma Concentrations of Compound (2) on Day 10 of Repeated Administration ([3]; Day 10, Time 15 h): 22.99 ng/mL
Average Plasma Concentrations of Compound (2) on Day 10 of Repeated Administration ([3]; Day 10, Time 16 h): 20.48 ng/mL
Average Plasma Concentrations of Compound (2) on Day 10 of Repeated Administration ([3]; Day 10, Time 21 h): 13.24 ng/mL
Average Plasma Concentrations of Compound (2) on Day 10 of Repeated Administration ([3]; Day 10, Time 24 h): 13.69 ng/mL
12-Hour Post-Dose Trough Values of Compound (2) after Repeated Administration ([3]; Initial Value): 0.000 ng/mL
Judgment Trough Value [3, 6]: A (IC90 (6.9 ng/mL) or higher)
Plasma Concentration Trough Value [3, 6]: 13.69 ng/mL and 13.7 ng/mL
Compound: Cc1cc(=O)n(-c2ccc(C[C@H](NC(=O)c3cc(F)c(NS(=O)(=O)c4ccc(NC(=O)C(C)(C)C)cc4)cc3F)C(=O)O)cn2)c(=O)n1C [Compound (2)]
IC50 (concentration that causes 50% binding inhibition) [1, 4]: 1.9 ng/mL (≈ 2.72 nM)
IC90 (concentration that causes 90% binding inhibition) [1, 4]: 6.9 ng/mL (≈ 9.88 nM)
